# According to US20140243411A1 (priority 2011, published 2014):
# How the values were obtained:
# [1] = Physical-chemical characterization: viscosity and density; assay type: physicochemical
# Procedure: More than a dozen esters and amide derivatives of DTPA were synthesized. […] C2E5 is an oil with a viscosity of 163 cps at 25° C. […] The density of C2E5 was determined to be 1.119 g/mL. […] The intrinsic partition coefficient (log P) of C2E5 is difficult to measure due to its instability at high pH. Thus, the log D6.0 was determined by measuring the partitioning of C2E5 into octanol and water phases.
# The solvent evaporation method was subsequently used to prepare the C2E5 non-aqueous gel formulations.
# [2] = Equilibrium solubility of C2E5 in aqueous media of varying pH; assay type: physicochemical; conditions: aqueous buffer, thermodynamic from solid
# [3] = Pharmacokinetics of neat C2E5 and C2E5 non-aqueous gel, plasma LC/MS/MS (Example 9); assay type: in vivo, Sprague-Dawley (SD) rats; conditions: SD rat plasma; 200 mg/kg
# Procedure: All animal studies were conducted according to a protocol approved by the University of North Carolina at Chapel Hill Institutional Animal Care and Use Committee (IACUC). Ten-week-old adult female Sprague-Dawley (SD) rats weighing from 200 to 300 g were used in these studies (Charles River Labs, Raleigh, N.C.). Food and water were given ad libitum. The animal room was kept at a controlled temperature (23° C.) and light cycle (light exposure from 8 AM to 8 PM). For the duration of the study, the rats were housed in metabolic cages individually with urine and feces collection until euthanasia at 24 h after neat C2E5 or C2E5 gel application.
# Neat C2E5 (i.e., only C2E5) at a dose of 200 mg/kg was applied using a 1 mL syringe to the same size area as a positive control. […] The mass of neat C2E5 or C2E5 gel applied was recorded for each animal to permit actual dose determination. […] The animals were observed during the study period and the body weight of the animals was recorded at pre-dose and prior to necropsy.
# Acidified plasma samples (100 μL) were first treated with 25 μL of ^13C—C2E5 stable-label internal standard (1000 ng/mL), followed by precipitation with MeCN (400 μL). […] After separation by liquid chromatography, the analytes and internal standard were detected on a triple quadrupole mass spectrometer using heated electrospray ionization (HESI-II) in the positive-ion mode. […]
# [4] = pH 7.4; Sueda et al.; cited from earlier work
smiles,measurement,setting,value
"CCOC(=O)CN(CCN(CC(=O)OCC)CC(=O)OCC)CCN(CC(=O)OCC)CC(=O)OCC [Formulation C2E5, penta-substituted ethyl ester of DTPA]",density,[1],1.119 g/mL
same,viscosity,[1]; 25° C.,163 cps
same,solubility thermodynamic,"[2]; pH 5.7, room temperature",20.3 mg/mL
same,solubility thermodynamic,"[2]; pH 7.1, room temperature",3 mg/mL
same,C2E1 in plasma samples,[3],not detected
same,solubility of C2E5,[4],2.2 mg/mL
